These results are taken from ChEMBL document CHEMBL1201862, “PubChem BioAssay data set” (2004).

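48-hour exposure; five concentrations; linearly interpolated endpoints. GI50 = concentration required for 50% inhibition of growth.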 Active and inactive are the calls of the source. No stated cut-off is given here; in the data, active = GI50 up to about 1.1 µM and inactive = higher. Where only a bound is given, the exact number is not on record here.

Among the test systems are OVCAR-5; SK-MEL-5; HCT-15; NCI-H522; MOLT-4; UACC-62; CAKI-1; UO-31; SN12C; A549; SR; HCC 2998; UACC-257; HOP-92; DU-145; MCF7; PC-3; MDA-MB-231.
Common to all, as to assay: NCI anticancer screen, dose series, 48 h

Take `COc1c(Cl)c(Cl)c(OC)c2c1C(=O)C=CC2=O`: the GI50 is 35.5 µM (inactive) in the assay on OVCAR-5; 34.9 µM (inactive) with SK-MEL-5; 35.6 µM in the assay with HCT-15; 17.6 µM (inactive) in the assay on NCI-H522; 2.9 µM (inactive) in the assay on MOLT-4; 15.6 µM (inactive) in the assay on UACC-62. The GI50 with CAKI-1 was 22.9 µM (inactive); in the assay with UO-31, 17.8 µM (inactive); in the assay with SN12C, 23.4 µM (inactive); in the assay with A549, 88.7 µM (inactive); in the assay on SR it was 10.4 µM (inactive); in the assay with HCC 2998 it was 60.3 µM (inactive). Besides, the GI50 with UACC-257 is 18.1 µM (inactive); in the assay on HOP-92, 15.3 µM (inactive).

`O=C(/C=C/c1ccc(Cl)c(Cl)c1)c1ccc2ccccc2c1`: the GI50 in the assay with OVCAR-5 is > 100 µM (inactive); with SK-MEL-5, > 100 µM (inactive); in the assay on HCT-15 it was over 100 µM; in the assay with NCI-H522, 88.5 µM (inactive); in the assay with MOLT-4, 48.9 µM (inactive); in the assay with UACC-62 it was > 100 µM (inactive). Further, the GI50 is > 100 µM (inactive) in the assay with CAKI-1; > 100 µM (inactive) with UO-31; 19.7 µM (inactive) in the assay on SN12C; > 100 µM (inactive) in the assay with A549; 47.9 µM (inactive) in the assay on SR; > 100 µM (inactive) in the assay with HCC 2998. For the same compound, the GI50 with UACC-257 and with HOP-92 was > 100 µM (inactive) in each case.

For the compound `CCN(CC)CCC(=O)N1CCc2c([nH]c3ccccc23)C1c1cccnc1` (stereo not drawn), the GI50 is > 100 µM (inactive) in the assay with OVCAR-5; > 100 µM (inactive) in the assay with SK-MEL-5; over 100 µM with HCT-15; > 100 µM (inactive) in the assay with NCI-H522; > 100 µM (inactive) in the assay with MOLT-4; > 100 µM (inactive) in the assay on UACC-62. Besides, the GI50 in the assay with CAKI-1, with UO-31, in the assay with SN12C, in the assay with A549, in the assay with SR and in the assay with HCC 2998 was > 100 µM (inactive) throughout. Further, the figures for the GI50 with UACC-257 and in the assay on HOP-92 were > 100 µM (inactive) and 68.9 µM (inactive), respectively.

Take `O=C(Cc1ccc(F)cc1)NC1=C(Cl)C(=O)c2ccccc2C1=O`: the GI50 in the assay with OVCAR-5 is 3.85 µM (inactive); in the assay on SK-MEL-5, 2.92 µM (inactive); in the assay with HCT-15, 1.31 µM; in the assay on NCI-H522, 0.297 µM (active); in the assay on MOLT-4, 1.79 µM (inactive); with UACC-62 it was 2.53 µM (inactive). Besides, the GI50 is 4.95 µM (inactive) in the assay with CAKI-1; 2.51 µM (inactive) in the assay with UO-31; 3.38 µM (inactive) in the assay on SN12C; 3.62 µM (inactive) with A549; 0.481 µM (active) with SR; 4.22 µM (inactive) with HCC 2998. Also, the results for the GI50 in the assay with UACC-257 and in the assay with HOP-92 were 2.48 µM (inactive) and 1.69 µM (inactive), respectively.

Turning to `CC[C@]1(O)C(=O)OCc2c1cc1n(c2=O)Cc2cc3c(N)cccc3nc2-1`, the GI50 was > 100 µM (inactive) with OVCAR-5; > 100 µM (inactive) with SK-MEL-5; over 100 µM in the assay on HCT-15; > 100 µM (inactive) in the assay with NCI-H522; > 100 µM (inactive) with MOLT-4; > 100 µM (inactive) in the assay with UACC-62. The GI50 with CAKI-1, with UO-31, in the assay with SN12C, in the assay on A549, with SR and with HCC 2998 was > 100 µM (inactive) in each case. In addition, the GI50 in the assay on UACC-257 and in the assay on HOP-92 was > 100 µM (inactive) throughout.

Regarding `C[N+](C)(C)CCc1ccccc1`, the GI50 in the assay on OVCAR-5 is > 100 µM (inactive); in the assay with SK-MEL-5, > 100 µM (inactive); with HCT-15, over 100 µM; in the assay on NCI-H522, > 100 µM (inactive); with MOLT-4, > 100 µM (inactive); with UACC-62 it was > 100 µM (inactive). Also, the GI50 in the assay on CAKI-1, in the assay with UO-31, in the assay on SN12C, in the assay with A549, in the assay on SR and with HCC 2998 was > 100 µM (inactive) throughout. For the same compound, the GI50 in the assay on UACC-257 and in the assay with HOP-92 was > 100 µM (inactive) in each case.

Turning to `COc1cc2c(cc1C)[n+]([O-])c(C)c(C(=O)C/C(=N/NC(=O)C[N+](C)(C)C)C(=O)Nc1cccc(Cl)c1C)[n+]2[O-]`, the GI50 with OVCAR-5 was > 100 µM (inactive); in the assay with SK-MEL-5, > 100 µM (inactive); with HCT-15, over 100 µM; in the assay on NCI-H522 it was > 100 µM (inactive); in the assay with MOLT-4, > 100 µM (inactive); in the assay with UACC-62, > 100 µM (inactive). Also, the GI50 with CAKI-1, in the assay on UO-31, with SN12C, in the assay with A549, with SR and in the assay on HCC 2998 was > 100 µM (inactive) in each case. The GI50 in the assay with UACC-257 and with HOP-92 was > 100 µM (inactive) throughout.

Consider `Cc1cc(C)c(-n2c(-c3ccccc3)cs/c2=N\N=C2C=C(C(C)(C)C)C(=O)C(C(C)(C)C)=C2)c(C)c1`, for which the GI50 in the assay with OVCAR-5 was > 100 µM (inactive); in the assay with SK-MEL-5 it was 94 µM (inactive); with HCT-15 it was over 100 µM; in the assay with NCI-H522 it was 85.1 µM (inactive); with MOLT-4, > 100 µM (inactive); with UACC-62, 60.3 µM (inactive). Further, the GI50 with CAKI-1, in the assay on SN12C, in the assay on A549, with SR, with HCC 2998 and in the assay on UACC-257 was > 100 µM (inactive) in each case. Besides, in the assay on HOP-92, the GI50 is 39 µM (inactive).

With `CN(C)/N=N/c1ccccc1`, the GI50 in the assay with SK-MEL-5 was > 100 µM (inactive); in the assay with HCT-15, 16.7 µM; in the assay with NCI-H522, 21.7 µM (inactive); with MOLT-4, > 100 µM (inactive); in the assay on CAKI-1 it was > 100 µM (inactive); with UO-31 it was 26.8 µM (inactive). For the same compound, the GI50 with SN12C is > 100 µM (inactive); with A549, 68.5 µM (inactive); in the assay on SR, > 100 µM (inactive); in the assay with HCC 2998, 38.1 µM (inactive); in the assay on HOP-92, > 100 µM (inactive).

With `O=C(CC(=O)n1nc(-c2ccccc2)c(/N=N/c2ccc([N+](=O)[O-])cc2)c1-c1ccccc1)Nc1ccc(Cl)cc1`, the GI50 in the assay on OVCAR-5 was 26.5 µM (inactive); in the assay on SK-MEL-5 it was 3.23 µM (inactive); in the assay on NCI-H522 it was 23.2 µM (inactive); in the assay on MOLT-4, 24.1 µM (inactive); in the assay with UACC-62, 2.56 µM (inactive); in the assay on CAKI-1 it was 20 µM (inactive). The GI50 in the assay on UO-31 is 11.9 µM (inactive); in the assay on SN12C it was 42.1 µM (inactive); in the assay on A549, 15.9 µM (inactive); with SR, 22.4 µM (inactive); in the assay with HCC 2998 it was 20.8 µM (inactive); with UACC-257, 34.8 µM (inactive). Moreover, the GI50 in the assay with HOP-92 is 16.8 µM (inactive).

Turning to `CC1=C2CN(C(=O)OCC(C)C)CCC2C2=C(C(=O)c3ccccc3C2=O)C1C` (stereo not drawn), the GI50 with DU-145 was > 10 µM (inactive); in the assay with SK-MEL-5 it was > 10 µM (inactive); with HCT-15 it was over 10 µM; with MCF7 it was > 10 µM (inactive); in the assay on PC-3, > 10 µM (inactive); with MOLT-4, > 10 µM (inactive). Also, the GI50 with UACC-62, in the assay on CAKI-1, with SN12C, in the assay with MDA-MB-231, in the assay with A549 and in the assay with SR was > 10 µM (inactive) throughout. Besides, the GI50 in the assay with HCC 2998, in the assay on UACC-257 and in the assay with HOP-92 was > 10 µM (inactive) each time.

Regarding `COc1c(-c2ccccc2)oc2c(CP(=O)(OC)OC)cccc2c1=O`, the GI50 with DU-145, in the assay on OVCAR-5, in the assay on SK-MEL-5, in the assay on NCI-H522, in the assay with MCF7 and in the assay on PC-3 was > 100 µM (inactive) throughout. Also, the GI50 was > 100 µM (inactive) in the assay on MOLT-4; > 100 µM (inactive) in the assay with UACC-62; 2.12 µM (inactive) in the assay on CAKI-1; 11.7 µM (inactive) in the assay on UO-31; > 100 µM (inactive) in the assay with SN12C; > 100 µM (inactive) with MDA-MB-231. In addition, the GI50 with A549, with SR, in the assay with HCC 2998 and in the assay with UACC-257 was > 100 µM (inactive) throughout.

Take `Cc1ccc(S(=O)(=O)c2ccc(C)cc2[N+](=O)[O-])cc1`: the GI50 in the assay with OVCAR-5 was > 100 µM (inactive); in the assay on SK-MEL-5 it was 24.4 µM (inactive); in the assay with HCT-15, over 100 µM; with NCI-H522, 43.7 µM (inactive); in the assay with MOLT-4, 45.1 µM (inactive); with UACC-62 it was 92.3 µM (inactive). For the same compound, the GI50 was 95.9 µM (inactive) with CAKI-1; > 100 µM (inactive) with UO-31; > 100 µM (inactive) in the assay with SN12C; > 100 µM (inactive) in the assay with A549; 79.4 µM (inactive) in the assay with SR; > 100 µM (inactive) in the assay with HCC 2998. Further, the GI50 is 28.8 µM (inactive) in the assay with UACC-257 and > 100 µM (inactive) in the assay with HOP-92.

As to `C=C/C=C(\NC(=O)C(Cl)(Cl)Cl)[Si](C)(C)C`, the GI50 in the assay with OVCAR-5 was > 100 µM (inactive); with SK-MEL-5, > 100 µM (inactive); in the assay with HCT-15, over 100 µM; in the assay on NCI-H522 it was > 100 µM (inactive); with MOLT-4, > 100 µM (inactive); in the assay on UACC-62, > 100 µM (inactive). Besides, the GI50 in the assay with UO-31, in the assay on SN12C, with A549, with SR, in the assay on HCC 2998 and in the assay on UACC-257 was > 100 µM (inactive) in each case. The GI50 in the assay with HOP-92 was > 100 µM (inactive).
